Test results: patent US20260159497A1, “SOLID FORMS OF A COMPLEMENT FACTOR B INHIBITOR” (Novartis Pharma AG, priority 2022, published 2026)
Like-named read-outs stand apart in the source and are kept apart here.

Legend:
[1] = Dynamic vapor sorption (DVS) mass change; assay type: physicochemical; conditions: Table 6
Excerpt: [table] The mass change by DVS isotherm (2 cycles 40-0-95-0-40% RH) are in the tables below. The mass change is based on the dry weight of each.

[2] = Grinding and wet granulation; assay type: physicochemical
Excerpt: Method: Granulate was obtained in solid-state forms. […] Dry the wet-cake under vacuum or at atmospheric pressure. Evaluate solid form and degree of crystallinity by e.g. XRPD and/or DSC.

[3] = Solubility in water and biorelevant buffers at 25° C.; assay type: physicochemical; conditions: for XRPD of residual solid after solubility test / pH of solubility sample (pH) / solubility at 24 h: 25° C., 24 h; for solubility at 24 h: thermodynamic from solid, read-out: Solubility (mg/mL) S
Procedure: Purchase sodium taurocholate (NaTC) from supplier. Account for assay. Add amount corresponding to 3 mM to PBS V1. Stir until dissolved. Equilibrate 1 h at 25° C. or 37° C. before use. Dispose after 48 h.
Purchase FaSSIF-V2 from supplier (biorelevant.com). Amount added to PBS-V1 according to Table 1. Stir until dissolved. Equilibrate 1 h at 25° C. or 37° C. before use. Dispose after 48 h.
Purchase FeSSIF-V2 from supplier (biorelevant.com). Amount added to PBS-V1 according to Table 1. Stir until dissolved. Equilibrate 1 h at 25° C. or 37° C. before use. Dispose after 48 h.

[4] = Compression stability (XRPD after compression); assay type: physicochemical; conditions: 4 tons of compression for 5 min
Excerpt: Method: […] Afterwards, characterize the sample by XRPD to detect any change in the solid state.

[5] = Stability of Forms A and B under stress conditions (temperature/humidity, capsules, light)
[6] = Intrinsic dissolution rate; assay type: physicochemical
[7] = pH 2.0, 0.01 M HCl, 37° C., 100 rpm, 120 min
[8] = pH 6.5, phosphate buffer 50 mM (PBS-V1), 37° C., 100 rpm, 120 min

SMILES: COc1cc(C)c2[nH]ccc2c1CN1CCC2(C[C@H]1c1ccc(C(=O)O)cc1)CC(F)(F)C2.Cc1ccc(S(=O)(=O)O)cc1 [Form B, (S)-4-(2,2-difluoro-7-((5-methoxy-7-methyl-1H-indol-4-yl)methyl)-7-azaspiro[3.5]nonan-6-yl)benzoic acid p-toluene sulfonate]
- Mass change by DVS, 2nd Desorption (%) ([1]; DVS at 25 degree C., 95% RH): 2.67%
- Mass change by DVS, 1st Desorption (%) ([1]; DVS at 40 degree C., 0% RH): 0.00%
- Mass change by DVS, 1st Sorption (%) ([1]; DVS at 40 degree C., 0% RH): 0.00%
- Mass change by DVS, 2nd Desorption (%) ([1]; DVS at 40 degree C., 0% RH): −0.01%
- Mass change by DVS, 2nd Sorption (%) ([1]; DVS at 40 degree C., 0% RH): −0.01%
- Mass change by DVS, 1st Desorption (%) ([1]; DVS at 40 degree C., 10% RH): 0.97%
- Mass change by DVS, 1st Sorption (%) ([1]; DVS at 40 degree C., 10% RH): 0.96%
- Mass change by DVS, 2nd Desorption (%) ([1]; DVS at 40 degree C., 10% RH): 0.97%
- Mass change by DVS, 2nd Sorption (%) ([1]; DVS at 40 degree C., 10% RH): 0.95%
- Mass change by DVS, 1st Desorption (%) ([1]; DVS at 40 degree C., 20% RH): 1.61%
- Mass change by DVS, 1st Sorption (%) ([1]; DVS at 40 degree C., 20% RH): 1.59%
- Mass change by DVS, 2nd Desorption (%) ([1]; DVS at 40 degree C., 20% RH): 1.60%
- Mass change by DVS, 2nd Sorption (%) ([1]; DVS at 40 degree C., 20% RH): 1.59%
- Mass change by DVS, 1st Desorption (%) ([1]; DVS at 40 degree C., 30% RH): 1.92%
- Mass change by DVS, 1st Sorption (%) ([1]; DVS at 40 degree C., 30% RH): 1.90%
- Mass change by DVS, 2nd Desorption (%) ([1]; DVS at 40 degree C., 30% RH): 1.91%
- Mass change by DVS, 2nd Sorption (%) ([1]; DVS at 40 degree C., 30% RH): 1.90%
- Mass change by DVS, 1st Desorption (%) ([1]; DVS at 40 degree C., 40% RH): 2.10%
- Mass change by DVS, 1st Sorption (%) ([1]; DVS at 40 degree C., 40% RH): 2.09%
- Mass change by DVS, 2nd Desorption (%) ([1]; DVS at 40 degree C., 40% RH): 2.09%
- Mass change by DVS, 2nd Sorption (%) ([1]; DVS at 40 degree C., 40% RH): 2.09%
- Mass change by DVS, 1st Sorption (%) ([1]; DVS at 40 degree C., 50% RH): 2.21%
- Mass change by DVS, 2nd Desorption (%) ([1]; DVS at 40 degree C., 50% RH): 2.22%
- Mass change by DVS, 1st Sorption (%) ([1]; DVS at 40 degree C., 60% RH): 2.28%
- Mass change by DVS, 2nd Desorption (%) ([1]; DVS at 40 degree C., 60% RH): 2.29%
- Mass change by DVS, 1st Sorption (%) ([1]; DVS at 40 degree C., 70% RH): 2.34%
- Mass change by DVS, 2nd Desorption (%) ([1]; DVS at 40 degree C., 70% RH): 2.37%
- Mass change by DVS, 1st Sorption (%) ([1]; DVS at 40 degree C., 80% RH): 2.40%
- Mass change by DVS, 2nd Desorption (%) ([1]; DVS at 40 degree C., 80% RH): 2.44%
- Mass change by DVS, 1st Sorption (%) ([1]; DVS at 40 degree C., 90% RH): 2.49%
- Mass change by DVS, 2nd Desorption (%) ([1]; DVS at 40 degree C., 90% RH): 2.49%
- Mass change by DVS, 1st Sorption (%) ([1]; DVS at 40 degree C., 95% RH): 2.52%
- Mass change by DVS, 2nd Desorption (%) ([1]; DVS at 40 degree C., 95% RH): 2.52%
- crystallinity from XRPD pattern after grinding ([2]; after grinding): crystallinity decrease
- form change after grinding and wet granulation ([2]; dry grinding (2 min and 5 min) and wet granulation (water and ethanol)): did not lead to any form change
- XRPD of residual solid after solubility test ([3]; FaSSGF, pH 1.6): No change
- pH of solubility sample (pH) ([3]; FaSSGF, pH 1.6): 1.77
- pH of solubility sample (pH) ([3]; PBS-V1 + 3 mM NaTC, pH 6.5): 6.42
- XRPD of residual solid after solubility test ([3]; PBS-V1 + 0.3 FeSSIF-V2, pH 6.5): Form A
- pH of solubility sample (pH) ([3]; PBS-V1 + 0.3 FeSSIF-V2, pH 6.5): 6.12
- XRPD of residual solid after solubility test ([3]; PBS-V1 + 2.0 FeSSIF-V2, pH 6.5): Form A
- pH of solubility sample (pH) ([3]; PBS-V1 + 2.0 FeSSIF-V2, pH 6.5): 6.19
- pH of solubility sample (pH) ([3]; PBS-V1 + FaSSIF-V2, pH 6.5): 6.35
- XRPD of residual solid after solubility test ([3]; PBS-V1 + FeSSIF-V2, pH 6.5): Form A
- pH of solubility sample (pH) ([3]; PBS-V1 + FeSSIF-V2, pH 6.5): 6.40
- solubility at 24 h ([3]; fassgf or other biorelevant, FaSSGF, pH 1.6): 0.49 mg/mL
- solubility at 24 h ([3]; fassgf or other biorelevant, PBS-V1 + 3 mM NaTC, pH 6.5): > 2 mg/mL
- solubility at 24 h ([3]; fassgf or other biorelevant, PBS-V1 + 0.3 FeSSIF-V2, pH 6.5): 0.1 mg/mL
- solubility at 24 h ([3]; fassgf or other biorelevant, PBS-V1 + 2.0 FeSSIF-V2, pH 6.5): 0.31 mg/mL
- solubility at 24 h ([3]; PBS-V1 + FaSSIF-V2, pH 6.5): > 2 mg/mL
- solubility at 24 h ([3]; PBS-V1 + FeSSIF-V2, pH 6.5): 0.2 mg/mL
- solubility at 24 h ([3]; water): 0.39 mg/mL
- solubility at 24 h compared with Form A ([3]; water and biorelevant buffers at 25° C., all media): significantly increased solubility
- pH of solubility sample (pH) ([3]; water): 3.89
- form change in XRPD after compression [4]: no form change
- stability in HPMC and HGC capsules ([5]; 50° C. with 11% and 75% RH for 2 weeks): chemically and physically stable
- degradation under light stress ([5]; 1200 kLux light stress): about 0.2%
- discoloration under light stress ([5]; 1200 kLux light stress): slight discoloration
- form change by XRPD after humidity exposure ([5]; exposed to 80% or 92% RH for 24 hrs): no change
- chemical stability in bulk state ([5]; stored at 50° C. with 11% RH or 75% RH for 1 week): chemically stable
- degradation in bulk state ([5]; stored at 80° C. with 75% RH): about 0.1%
- discoloration in bulk state ([5]; stored at 80° C. with 75% RH): slight discoloration
- chemical stability in bulk state ([5]; stored at 80° C./11% RH for 1 week): chemically stable
- polymorphic form in the stress conditions ([5]; temperature/humidity and light stress conditions): no change
- intrinsic dissolution rate ([6]; PBS-V1 (pH 6.5)): 0.18 mg/min/cm^2
- intrinsic dissolution rate ([6]; pH 2.0, 0.01 M HCl): 0.015 mg/min/cm^2
- form change after intrinsic dissolution [6, 7]: (No form change)
- intrinsic dissolution rate [6, 7]: 0.015 mg · min^−1 · cm^−2
- form change after intrinsic dissolution [6, 8]: (No form change
- intrinsic dissolution rate [6, 8]: 0.18 mg · min^−1 · cm^−2
